# Measured values as given in patent publication US20240115667A1 (priority 2020, published 2024).
# Like-named read-outs stand apart in the source and are kept apart here.
# Tests used:
# SARS-CoV-2 [1] = conditions: for EC50, inhibition of SARS-CoV-2 induced cytotoxicity: Vero E6, MOI 0.2, LDH release
# SARS-CoV-2 [2] = format: cell-based; conditions: diphenhydramine 40 μg/ml, lactoferrin 400 μg/ml; MOI 0.01; 48 h supernatant
# SARS-CoV-2 [3] = format: cell-based
# SARS-CoV-2 [4] = assay: microbe, parasite or virus in culture; conditions: Severe acute respiratory syndrome coronavirus 2, Vero C1008, read-out: EC50, inhibition of SARS-CoV-2 induced cytotoxicity, diphenhydramine with 400 μg/ml of lactoferrin
# SARS-CoV-2 [5] = system: SARS-CoV-2
structure (smiles),measurement,setting,value
CN(C)CCOC(c1ccccc1)c1ccccc1 [Diphenhydramine],Decrease of diphenhydramine EC50,SARS-CoV-2 [1]; co-administration of 400 μg/ml of lactoferrin,55.5%
same,"EC50, inhibition of SARS-CoV-2 induced cytotoxicity",SARS-CoV-2 [1]; diphenhydramine alone,122 µg/mL
same,"EC50, inhibition of SARS-CoV-2 induced cytotoxicity",SARS-CoV-2 [1]; diphenhydramine with 400 μg/ml of lactoferrin,54.25 µg/mL
same,Reduction of infectious SARS-CoV-2 particle release compared to untreated H23-hACE2 cells,SARS-CoV-2 [2],−1 log
same,Reduction in N-protein RNA,SARS-CoV-2 [3],32.2%
same,EC50,"SARS-CoV-2 [4]; Vero E6, MOI 0.2",186 µM
same,EC50,"SARS-CoV-2 [4]; Vero E6, MOI 0.2, LDH release",54.2 µg/mL
same,Inhibition of SARS-CoV-2 infection in vitro,SARS-CoV-2 [5],inhibited SARS-CoV-2 infection when administered alone
same,Reduction of the diphenhydramine EC50 by presence of LFN,SARS-CoV-2 [5],3 times
same,Decrease of SARS-CoV-2 induced cytotoxicity,SARS-CoV-2 [5]; 5 μg/mL DPH alone,unable to decrease SARS-CoV-2 induced cytotoxicity
